Measured values reported in patent publication US20220079899A1, “COMPOSITIONS AND METHODS FOR TREATING OCULAR CONDITIONS” (The Regents of the University of California, priority 2019, published 2022).

Tested on: calcification in injured hearts of ABCC6-deficient mice
Assay: Calcification after heart injury in a mouse model of PXE
Assay type: in vivo
Conditions: intraperitoneally 1 mcg/daily for 7 days, versus vehicle
Protocol: FIGS. 1A and 1B show calcification in injured hearts in a mouse model of PXE treated with vehicle (A) or ARL67156 (B).
ENPP1 inhibitors attenuate calcification in a mouse model of PXE. Mice genetically deficient in ABCC6 (the causative gene in PXE) were subjected to heart injury, and either (A) vehicle or (B) ARL67156 was administered (intraperitoneally 1 mcg/daily) for 7 days.

CCN(CC)c1ncnc2c1ncn2[C@@H]1O[C@H](COP(=O)(O)OP(=O)(O)C(Br)(Br)P(=O)(O)O)[C@@H](O)[C@H]1O [ARL67156]
calcification in the injured region: significant attenuation of calcification
